Results on ten molecules are retold here after patent US7816520B2, “5,6-diphenyl-1,2,4-triazinic dimeric derivatives and the use thereof in the form of sun-protective agents” (Pierre Fabre Dermo-Cosmetique, priority 2004, dated 2010).

Entries after “also recorded” stand apart in the source; their conditions may differ.

Common to all, as to type: physicochemical
Series [1] in a line: Solubility study in solvents or excipients used in cosmetics. The settings on record: for Solubilities: Soluble (solvent in which the compound is soluble): value = solvent; for Solubilities: Insoluble (solvent in which the compound is insoluble): value = solvent named in the Insoluble column; for Solubilities: Soluble, DMSO: solvent DMSO; for Solubilities: Soluble, Transcutol: solvent Transcutol.

A short description of series [2]: Spectral characteristics: molar extinction coefficient and specific absorbance (UV spectrophotometry in ethyl acetate). Conditions: 10 μg/ml; for Maximum molar extinction coefficient UVA / Maximum specific absorbance UVA: UVA band; for Maximum specific absorbance UVA / Maximum specific absorbance UVB: A1cm^1%; for Wavelength of maximum molar extinction coefficient UVA / Wavelength of maximum specific absorbance UVA / Wavelength of maximum molar extinction coefficient UVB / Wavelength of maximum specific absorbance UVB: the 'at ...' part of the cell; for Maximum molar extinction coefficient UVB / Maximum specific absorbance UVB: UVB band. From the text: The calculation of the molar extinction coefficient (ε) is made from the Beer-Lambert law:
[formula] Wherein: • A=absorbance • I0=intensity of the incident light • I=intensity of the transmitted light • ε=molar extinction (or molar absorbance) coefficient in M^−1 cm^−1 • l=path length in cm • c=concentration in mol/l
The molar extinction coefficient can be expressed with respect to a given mass of the product. It thus makes it possible to be able to compare the coefficients of extinction between products for the same given quantity. This quantity is 1% by weight. The molar extinction coefficient thus becomes the specific absorbance (A1cm^1%).
It is expressed as follows:
[formula] Wherein: • A1cm^1%=specific absorbance • ε=molar extinction coefficient • M=molar mass
The spectral characteristics of the compounds in comparison with commercial filters at a concentration of 10 μg/ml are summarized in tables 2-1 and 2-2.
Procedure: The products are dissolved in ethyl acetate to a concentration of 10 μg/ml. The spectra are measured using a dual-beam spectrophotometer (Varian CARY 50 Scan) between 290 nm and 400 nm.

The nature of series [3]: Spectral distribution in UVA and UVB, 290 nm to 400 nm. Conditions: for Spectral distribution (UV bands absorbed): absorption spectra, FIGS. 1-3; for Absorption peaks: range from 290 nm to 400 nm. The text has this:
The products tested are classified according to spectral distribution in UVA and UVB in a range from 290 nm to 400 nm. It is possible to differentiate them according to their spectral distribution: Products with a narrow spectrum: • Products absorbing in the range between 280 nm and 320 nm (UVB) • Products absorbing in the range between 320 nm and 400 nm (UVA) Products with a broad spectrum: • Products absorbing in UVB (280-320 nm) and UVA-II […] • Products covering UVB and UVA (280-400 nm).

Series [4] can be described thus: Photostability in solution in a chemical solvent (Suntest CPS+). The settings on record: 25 μg deposited from methanol, absorbance vs non-irradiated control, in % (unit assumed); for Photostability at 5 MED, mean: Suntest irradiation 5 MED; for Photostability at 10 MED, mean: Suntest irradiation 10 MED. From the text: A Suntest CPS+(Atlas, Linsengenicht/Altenhasslan, Germany) was used. The Suntest makes it possible to reproduce the solar spectrum and thus to carry out exposures inside at any time without weather constraints.
The radiance of the solar simulator was carefully measured with a spectroradiometer (MSS 2044, Bielefeld, Germany). UVB and UVA intensities were 0.49 mW/cm^2 and 6.32 mW/cm^2, respectively. The MED value defined by COLIPA is 5.6 J/cm^2 in total UV (22). The UV total (UVA+UVB) accounts for 14.8% of the energy delivered by the lamp (power 460 W/m^2). An irradiation dose equivalent to 1 MED corresponds to 37.83 J/cm^2 (in total spectrum) delivered by the lamp.
The Suntest test duration is calculated using the following formula: t=H/E with: • E=illumination energy in W/m^2 • H=irradiation dose in J/m^2 • t=duration of the test in s
The solutions of the compounds are prepared at a concentration of 500 μg/ml in methanol. 50 μl (25 μg) of each solution are deposited in a crystallizer, then irradiated in the Suntest at 5, 10 and/or 20 MED. A non-irradiated control is prepared (deposit of 50 μl of solution and addition of 2.450 ml of methanol). The solvent evaporates during irradiation and the products are taken up in 2.5 ml of methanol. After irradiation, the absorbance of each solution is measured with the UV-visible spectrophotometer (Varian CARY 50 Scan).

For the molecule `Brc1ccc(-c2nnc(-c3ccc(-c4nnc(-c5ccc(Br)cc5)c(-c5ccc(Br)cc5)n4)cc3)nc2-c2ccc(Br)cc2)cc1` [WP52, 1,4-bis[5,6-(4,4′-dibromo)-diphenyl-1,2,4-triazin-3-yl]benzene], in series [1], the “Solubilities: Soluble (solvent in which the compound is soluble)” value is “DMSO or hot DMF”; the “Solubilities: Insoluble (solvent in which the compound is insoluble)” value (from here on “Solubilities: Insoluble”) is “Water and MeOH and CHCl3 and Acetone and Acetonitrile and Benzene and Myritol and Transcutol”. Further, in series [2], the “Maximum molar extinction coefficient UVA” value was 57300 M⁻¹ cm⁻¹, the “Maximum specific absorbance UVA” value is reported as 669, the “Wavelength of maximum molar extinction coefficient UVA” value is on record as “at 330 nm” and the “Wavelength of maximum specific absorbance UVA” value was “at 330 nm”. Further, in series [3], the “Spectral distribution (UV bands absorbed)” value (from here on “Spectral distribution”) is “absorb in UVB and UVA”; the Absorption peaks was 330 nm.
For “1,4-bis[5,6-(4,4′-(2-{2-[2-(2-methoxy-ethoxy)-ethoxy]-ethoxy}-ethoxy)-)-diphenyl-1,2,4-triazin-3-yl]benzene [WP41]”, in series [1], the “Solubilities: Soluble, DMSO” value is “DMSO 2.7%”; the “Solubilities: Soluble, Transcutol” value was “Transcutol 0.1%”; the “Solubilities: Soluble (solvent in which the compound is soluble)” value was “DMC and AcOEt (PS) and MeOH (PS)”; the “Solubilities: Insoluble” value was “EtOH and Hexane and Myritol”. In addition, in series [2], the “Maximum molar extinction coefficient UVA” value was found to be 91400 M⁻¹ cm⁻¹, the “Maximum molar extinction coefficient UVB” value is 72000 M⁻¹ cm⁻¹, the “Maximum specific absorbance UVA” value is 669 and the “Maximum specific absorbance UVB” value was 527. Besides, in series [2], the “Wavelength of maximum molar extinction coefficient UVA” value was “at 330 nm”, the “Wavelength of maximum molar extinction coefficient UVB” value is listed as “at 305 nm”, the “Wavelength of maximum specific absorbance UVA” value is “at 330 nm” and the “Wavelength of maximum specific absorbance UVB” value is on record as “at 305 nm”. For the same molecule, in series [3], the “Spectral distribution” value was “absorb in UVB and UVA”.
On to `CCCCCCCCCCCCCCCCCCOc1ccc(-c2nnc(-c3ccc(-c4nnc(-c5ccc(OCCCCCCCCCCCCCCCCCC)cc5)c(-c5ccc(OCCCCCCCCCCCCCCCCCC)cc5)n4)cc3)nc2-c2ccc(OCCCCCCCCCCCCCCCCCC)cc2)cc1` [WP38, 1,4-bis[5,6-(4,4′-di-octadecyloxy)-diphenyl-1,2,4-triazin-3-yl]benzene], for which, in series [1], the “Solubilities: Soluble (solvent in which the compound is soluble)” value was “Benzene; also recorded: Toluene; also recorded: Myritol; also recorded: Transcutol”; the “Solubilities: Insoluble” value is “MeOH and DMC and AcOEt”.
Regarding `Oc1ccc(-c2nnc(-c3ccc(-c4nnc(-c5ccc(O)cc5)c(-c5ccc(O)cc5)n4)cc3)nc2-c2ccc(O)cc2)cc1` [WP35, 1,4-bis[5,6-(4,4′-dihydroxy)-diphenyl-1,2,4-triazin-3-yl]benzene], in series [1], the “Solubilities: Soluble, DMSO” value is listed as “DMSO 3.5%”; the “Solubilities: Soluble, Transcutol” value was “Transcutol 0.5%”; the “Solubilities: Insoluble” value is “MeOH and CHCl3 and Ethyl acetate and Hexane and Myritol”. Further, in series [2], the “Maximum molar extinction coefficient UVA” value was found to be 27800 M⁻¹ cm⁻¹, the “Maximum molar extinction coefficient UVB” value worked out at 29600 M⁻¹ cm⁻¹, the “Maximum specific absorbance UVA” value turned out to be 460 and the “Maximum specific absorbance UVB” value worked out at 490. Also, in series [2], the “Wavelength of maximum molar extinction coefficient UVA” value is given as “at 355 nm”, the “Wavelength of maximum molar extinction coefficient UVB” value is listed as “at 310 nm”, the “Wavelength of maximum specific absorbance UVA” value is “at 355 nm” and the “Wavelength of maximum specific absorbance UVB” value is on record as “at 310 nm”. Moreover, in series [3], the “Spectral distribution” value is “absorb in UVB and UVA”; the Absorption peaks is 355 nm.
In the case of `Fc1ccc(-c2nnc(-c3ccc(-c4nnc(-c5ccc(F)cc5)c(-c5ccc(F)cc5)n4)cc3)nc2-c2ccc(F)cc2)cc1` [WP89, 1,4-bis[5,6-(4,4′-difluoro)-diphenyl-1,2,4-triazin-3-yl]benzene], the “Solubilities: Soluble (solvent in which the compound is soluble)” value in series [1] was “Ethyl acetate”. Besides, in series [2], the “Maximum molar extinction coefficient UVA” value amounted to 47700 M⁻¹ cm⁻¹, the “Maximum specific absorbance UVA” value came to 778, the “Wavelength of maximum molar extinction coefficient UVA” value is “at 330 nm” and the “Wavelength of maximum specific absorbance UVA” value is listed as “at 330 nm”. Also, in series [3], the “Spectral distribution” value was “absorb in UVB and UVA”; the Absorption peaks was determined as 330 nm.
With `CCCCCC[C@H](C)Oc1ccc(-c2nnc(-c3ccc(-c4nnc(-c5ccc(O[C@@H](C)CCCCCC)cc5)c(-c5ccc(O[C@@H](C)CCCCCC)cc5)n4)cc3)nc2-c2ccc(O[C@@H](C)CCCCCC)cc2)cc1` [WP149, 1,4-bis[5,6-bis(4,1-methylheptyloxyphenyl)-1,2,4-triazine-3-yl]benzene], in series [4], the “Photostability at 5 MED, mean” value was found to be 80.40. Besides, the “Photostability at 10 MED, mean” value in series [4] turned out to be 38.16. Moreover, the “Solubility (%)” value stood at 4.5% in series [1] (excipient Finsol V NT ® (C12-C15 alkyl benzoate)), 2% in series [1] (excipient Isopropyl adipate) and 2.5% in series [1] (excipient Myritol 318 ® (caprylic/capric triglycerides)).
As to `c1ccc(-c2nnc(-c3ccc(-c4ccc(-c5nnc(-c6ccccc6)c(-c6ccccc6)n5)cc4)cc3)nc2-c2ccccc2)cc1` [WP135], in series [4], the “Photostability at 5 MED, mean” value is 57.45 and the “Photostability at 10 MED, mean” value was found to be 33.66. In addition, in series [2], the “Maximum molar extinction coefficient UVA” value worked out at 57000 M⁻¹ cm⁻¹, the “Maximum specific absorbance UVA” value stood at 924, the “Wavelength of maximum molar extinction coefficient UVA” value is given as “at 330 nm” and the “Wavelength of maximum specific absorbance UVA” value is reported as “at 330 nm”. Also, in series [3], the “Spectral distribution” value was “absorb in UVB and UVA”; the Absorption peaks was determined as 330 nm.
Consider `Clc1ccc(-c2nnc(-c3ccc(-c4nnc(-c5ccc(Cl)cc5)c(-c5ccc(Cl)cc5)n4)cc3)nc2-c2ccc(Cl)cc2)cc1` [WP100, 1,4-bis[5,6-(4,4′-dichloro)-diphenyl-1,2,4-triazin-3-yl]benzene], for which, in series [1], the “Solubilities: Soluble (solvent in which the compound is soluble)” value was “Hot DMSO”; the “Solubilities: Insoluble” value was “DCM and Et2O and Toluene and Octanol and EtOH and Myritol and Transcutol”. In addition, in series [2], the “Maximum molar extinction coefficient UVA” value was 43400 M⁻¹ cm⁻¹, the “Maximum specific absorbance UVA” value came to 640, the “Wavelength of maximum molar extinction coefficient UVA” value is listed as “at 300 nm” and the “Wavelength of maximum specific absorbance UVA” value is recorded as “at 100 nm”. Further, in series [3], the “Spectral distribution” value was “absorb in UVB and UVA”; the Absorption peaks is 300 nm.
In the case of `Cc1ccc(-c2nnc(-c3ccc(-c4nnc(-c5ccc(C)cc5)c(-c5ccc(C)cc5)n4)cc3)nc2-c2ccc(C)cc2)cc1` [WP39, 1,4-bis[5,6-(4,4′-dimethyl)-diphenyl-1,2,4-triazin-3-yl]benzene], in series [1], the “Solubilities: Soluble (solvent in which the compound is soluble)” value is given as “DMSO or hot DMF”; the “Solubilities: Insoluble” value is “Water and MeOH and CHCl3 and Acetone and Acetonitrile and Benzene”. In addition, in series [2], the “Maximum molar extinction coefficient UVA” value was 48200 M⁻¹ cm⁻¹, the “Maximum specific absorbance UVA” value is on record as 808, the “Wavelength of maximum molar extinction coefficient UVA” value is “at 335 nm” and the “Wavelength of maximum specific absorbance UVA” value is “at 335 nm”. In series [3], the “Spectral distribution” value was “absorb in UVB and UVA”.
Consider `COc1ccc(-c2nnc(-c3ccc(-c4nnc(-c5ccc(OC)cc5)c(-c5ccc(OC)cc5)n4)cc3)nc2-c2ccc(OC)cc2)cc1` [WP40, 1,4-bis[5,6-(4,4′-dimethoxy)-diphenyl-1,2,4-triazin-3-yl]benzene], for which, in series [1], the “Solubilities: Soluble (solvent in which the compound is soluble)” value is recorded as “DMSO or hot DMF”; the “Solubilities: Insoluble” value is “Water and MeOH and CHCl3 and Acetone and Acetonitrile and Benzene”.
